Experimental data taken from US20240341340A1, “EYE DAMAGE PREVENTION COMPOSITION CONTAINING DENDROPANAX MORBIFERA LEV. EXTRACT” (KOREA GINSENG CORP., priority 2021, published 2024).

Experiments:
Format in all cases: in vivo, mouse
[1] = system: BALB/c mice, white LED light-induced loss of optic nerve cells; assay: Outer nuclear layer thickness in light-induced macular degeneration animal model; settings: 6.5 mg/kg/day oral for 7 days
Excerpt: When drusen accumulates in the macular area due to dry macular degeneration, the macular area is photooxidized and causes damage to surrounding tissues and optic nerve cells, thereby resulting in a decrease of visual acuity, and in severe cases, geographic atrophy occurs, a condition in which optic nerve cells are lost and retinal apoptosis is induced. In order to determine whether a Dendropanax morbifera extract has the effect of improving damage or deformation of photoreceptor cells in an animal model where optic nerve cell damage was caused by excessive irradiation of a light source including blue light and loss of optic nerve cells similar to dry macular degeneration, the changes in the thickness of outer nuclear layer (ONL) of the retina were measured. Specifically, 6-week-old male BALB/c mice (Orient Bio Inc.) were acclimatized for one week and then subjected to dark adaptation in a dark place without light for 14 hours from the evening before white LED exposure containing blue light, and then, their pupils were dilated with 1% tropicamide eye drop the next morning. […] The slide sections were stained with hematoxylin & eosin (H&E) and observed under an optical microscope, and damage or deformation of photoreceptor cells was evaluated by measuring changes in the thickness of the outer nuclear layer of retinal tissue

[2] = system: BALB/c mice, white LED light-induced loss of optic nerve cells; assay: Electroretinogram (wave a and wave b) in light-induced macular degeneration animal model; settings: 6.5 mg/kg/day oral
Excerpt: An electroretinogram (ERG) is a degree of electric potential of the retinal optic nerve representing an electrical signal generated by a response of the optic nerve to light, and is used as an index to determine the presence/absence of retinal damage or disease. The electroretinogram consists of wave a and wave b, in which the wave a is generated by photoreceptors, and the wave b is generated by depolarization of bipolar cells in the inner nuclear layer of the retina by light stimulation. In order to confirm whether a Dendropanax morbifera extract has the effect of improving the decrease of activity of visual cells in an animal model in which optic nerve cell damage was caused by the irradiation of an excessive light source and loss of optic nerve cells similar to dry macular degeneration was induced, the electroretinogram was measured. […] An appropriate amount of 1% methylcellulose was added to the eyeballs while maintaining body temperature under general anesthesia, and the gold wire loops recording electrode was grounded to the cornea, and the reference electrode was placed on the cheek area, and the ground electrode was grounded to the tail, and then the electroretinogram was measured using Retiport (Roland Consult, Germany). […]

[3] = system: BALB/c mice, MNU-induced loss of optic nerve cells; assay: Outer nuclear layer thickness in N-methyl-N-nitrosourea (MNU) animal model; settings: 6.5 and 13 mg/kg/day oral for 7 days
Method: In order to confirm the effect of the Dendropanax morbifera extract on improving damage or deformation of photoreceptor cells, N-methyl-N-nitrosourea (MNU) toxic to photoreceptor cells was administered, and the changes in thickness of the outer nuclear layer (ONL) of the retina were measured in an animal model where loss of optic nerve cells similar to dry macular degeneration was induced. Specifically, 6-week-old male BALB/c mice (Orient Bio Inc.) were acclimatized for one week, and N-methyl-N-nitrosourea (MNU) (Sigma, USA) was prepared to a concentration of 1% in a 0.05% acetic acid solution and was administered intraperitoneally to mice at a concentration of 1%, 60 mg/kg per individual, in which only the same amount of 0.05% acetic acid was administered intraperitoneally in the negative control. The test drug was orally administered once daily for 7 days from the same day after administration of N-methyl-N-nitrosourea. […] The slide sections were stained with hematoxylin & eosin (H&E) and observed under an optical microscope, and damage or deformation of photoreceptor cells was evaluated by measuring changes in the thickness of the outer nuclear layer of retinal tissue.

O=C(/C=C/c1ccc(O)c(O)c1)O[C@@H]1C[C@@](O)(C(=O)O)C[C@@H](O)[C@@H]1O [neochlorogenic acid, Neochlorogenic acid]
not statistically significant: increase of thickness of the outer nuclear layer (positive control) [1] | improvement of retinal nerve conduction (positive control) [2] | increase of thickness of the outer nuclear layer (positive control) [3]
